Laboratory results taken from patent US20220218776A1, “COMPOSITION FOR USE IN A METHOD FOR PREVENTION OR TREATMENT OF MALTNUTRITION IN A SUBJECT SUFFERING FROM A CHRONIC INFLAMMATORY BOWEL DISEASES” (SOFAR S.P.A., priority 2019, published 2022).

Test system: pro-inflammatory patterns typical of IBD
Test: depression of pro-inflammatory patterns typical of IBD
Conditions: administered alone
Text: According to an aspect of the invention, the casein (ii) contained in the mixture (M), together with (i), (iii) and (iv) (according to any of the described embodiments), is a micellar casein, i.e. in the native form thereof.

Substance: casein
- pro-inflammatory patterns typical of IBD: capable of depressing pro-inflammatory patterns typical of IBD
